Here are results for 22 molecules from patent publication US6271342A, “Sugar-modified cytostatics” (Bayer Aktiengesellschaft, priority 1995, dated 2001).

Counter-ions that a name gives are not always drawn.

Holding throughout (experiment): Growth inhibition test (MTT) for cytotoxic properties
The test system of one experiment is HT 29. Type of experiment: cell-based, human. The essentials: (§1)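 SW 480 and HT 29 cells in RPMI 1640 with 10% FCS were seeded at 50,000 cells/ml, grown 1 day at 37 °C, then exposed to compound added in DMSO. MTT (5 mg/ml stock) was applied after day 3 and day 6 for 5 h, and formazan absorbance was read at 540 nm. IC50 values reported.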
The test system of a further experiment is SW 480. Type of experiment: cell-based, human. The gist of the method:
as §1

The subject of another experiment is B 16 F 10. Type of experiment: cell-based, mouse. The following applies: Table 1b. Here is the method: Growth Inhibition Test for Determination of the Cytotoxic Properties of Glycoconjugates of Batracyline and of Quinolone-a
The human colon cell lines SW 480 and HT 29 (ATCC no. CCL 228 and HBT-38) and the mouse melanoma cell line B 16 F 10 were cultured in Roux dishes in RPMI 1640 medium with addition of 10% FCS. The cultures were then trypsinized and taken up in RPMI plus 10% FCS to a cell count of 50,000 cells/ml. 100 μl of cell suspension/well were introduced into a 96 microwell plate and incubated for 1 day at 37° C. in a CO2 incubating cabinet. A further 100 μl of RPMI medium and 1 μl of dimethyl sulphoxide with the test substances were then added. The growth was checked after day 3 and day 6. 40 μl of MTT solution (3-(4,5-dimethylthiazol-2-yl)-2,5-diphenyltetrazoline bromide) with an initial concentration of 5 mg/ml of H2 O were added to each microwave. The plate was incubated for 5 hours in a CO2 incubating cabinet at 37° C. The medium was then sucked off and 100 μl of i-propanol/well were added. After shaking for 30 minutes with 100 μl of H2 O, the extinction was measured at 540 nm with a Titertek Multiskan MCC/340 (Flow).

Setting [1] is: Table 1a, glycoconjugates of batracyline.

Turning to `CC1OC(Oc2ccc(NC(=S)NC3C=CCC4CN(c5c(F)cc6c(=O)c(C(=O)O)cn(C7CC7)c6c5Cl)CC43)cc2)C(O)C(OCC(=O)O)C1O` (mixture of isomers) [Example 12.12, N-[O-(3-O-Carboxymethyl-β-L-fucosyl)-4hydroxy-phenylamino-thiocarbonyl-quinolone-a, di-sodium salt], the IC50 in the experiment with HT 29 (Table 1b) came to 13 µM; in the experiment with SW 480 (Table 1b), 8 µM; in the experiment with B 16 F 10, 0.5 µM.

For the molecule `Cc1csc2c(C(=O)O)c(=O)c3cc(F)c(N4CC5C(C)C=CC(NC(=O)C(CCCCN)NC(=S)Nc6ccc(OC7OC(C)C(O)C(OCC(=O)O)C7O)cc6)C5C4)cc3n12` (mixture of isomers) [Example 14.3, N-{N^α -[O-(3-O-Carboxymethyl-β-L-fucosyl)-4-hydroxy-phenylamino-thiocarbonyl]-lysyl}-quinolone-c, di-sodium salt], the IC50 in the experiment with HT 29 (Table 1b) was determined as 4 µM; with SW 480 (Table 1b), 8 µM; with B 16 F 10, 4 µM.

As to `C[C@@H]1O[C@H](Oc2ccc(NC(=S)NCCCC[C@H](N)C(=O)N[C@H](C)C(=O)NC3C=CCC4CN(c5c(F)cc6c(=O)c(C(=O)O)cn(C7CC7)c6c5Cl)CC43)cc2)[C@@H](O)[C@H](OCC(=O)O)[C@@H]1O` (stereo partly drawn) [Example 10.1, N-{N^ε -[O(3-O-Carboxymethyl-β-L-fucosyl)-4-hydroxy-phenylamino-thiocarbonyl]-lysyl-D-alanyl}-quinolone-a], the figures for the IC50 in the experiment with HT 29 (Table 1b), in the experiment with SW 480 (Table 1b) and with B 16 F 10 were above 250 µM, 50 µM and 15 µM, respectively.

With `CO[C@H]1[C@H](O)[C@@H](Oc2ccc(NC(=S)NCCCC[C@H](N)C(=O)N[C@@H](C)C(=O)NC3C=CCC4CN(c5c(F)cc6c(=O)c(C(=O)O)cn(C7CC7)c6c5Cl)CC43)cc2)O[C@@H](C)[C@H]1O` (stereo partly drawn) [Example 10.2, N-{N^ε -[O-(3-O-Methyl-β-L-fucosyl)-4-hydroxy-phenylamino-thiocarbonyl]-lysyl-alanyl}-quinolone-a], the IC50 in the experiment with HT 29 (Table 1b) is 3 µM; in the experiment on SW 480 (Table 1b), 4 µM; in the experiment with B 16 F 10, 5 µM.

On to `CO[C@H]1[C@H](O)[C@@H](Oc2ccc(NC(=S)NCCCC[C@H](N)C(=O)NC3C=CCC4CN(c5c(F)cc6c(=O)c(C(=O)O)cn(C7CC7)c6c5Cl)CC43)cc2)O[C@@H](C)[C@H]1O` (stereo partly drawn) [Example 10.3, N-{N^ε -[O-(3-O-Methyl-β-L-fucosyl)-4-hydroxy-phenylamino-thiocarbonyl]-lysyl}-quinolone-a], for which the IC50 with HT 29 (Table 1b) came to 4 µM; in the experiment with SW 480 (Table 1b), 5 µM; in the experiment on B 16 F 10, 0.7 µM.

In the case of `C[C@@H]1O[C@H](Oc2ccc(NC(=S)NCCCC[C@H](NC(=S)Nc3ccc(O[C@H]4O[C@@H](C)[C@@H](O)[C@@H](OCC(=O)O)[C@@H]4O)cc3)C(=O)NC3C=CCC4CN(c5c(F)cc6c(=O)c(C(=O)O)cn(C7CC7)c6c5Cl)CC43)cc2)[C@@H](O)[C@H](OCC(=O)O)[C@@H]1O` (stereo partly drawn) [Example 11.8, N-{N^α,N^ε -Bis-[O-(3-O-carboxymethyl-β-L-fucosyl)-4-hydroxy-phenylamino-thiocarbonyl]-lysyl}-quinolone-a, di-sodium salt], the IC50 came out at 16 µM with HT 29 (Table 1b), 12 µM with SW 480 (Table 1b) and 15 µM in the experiment with B 16 F 10.

With `C[C@@H]1O[C@H](Oc2ccc(NC(=S)NCCCC[C@@H](NC(=S)Nc3ccc(O[C@H]4O[C@@H](C)[C@@H](O)[C@@H](OCC(=O)O)[C@@H]4O)cc3)C(=O)NC3C=CCC4CN(c5c(F)cc6c(=O)c(C(=O)O)cn(C7CC7)c6c5Cl)CC43)cc2)[C@@H](O)[C@H](OCC(=O)O)[C@@H]1O` (stereo partly drawn) [Example 11.9, N-{N^α,N^ε -Bis-[O-(3-O-carboxymethyl-β-L-fucosyl)-4-hydroxy-phenylamino-thiocarbonyl]-D-lysyl}-quinolone-a, di-sodium salt], the IC50 with HT 29 (Table 1b) was found to be 12 µM; with SW 480 (Table 1b), 12 µM; in the experiment on B 16 F 10, 9 µM.

Take `CO[C@H]1[C@H](O)[C@H](Oc2ccc(NC(=S)NCCCC[C@@H](NC(=S)Nc3ccc(O[C@@H]4O[C@@H](C)[C@@H](O)[C@@H](OC)[C@@H]4O)cc3)C(=O)NC3C=CCC4CN(c5c(F)cc6c(=O)c(C(=O)O)cn(C7CC7)c6c5Cl)CC43)cc2)O[C@@H](C)[C@H]1O` (stereo partly drawn) [Example 11.10, N-{N^α,N^ε -Bis-[O-(3-O-methyl-α-L-fucosyl)-4hydroxy-phenylamino-thiocarbonyl]-D-lysyl}-quinolone-a]: the IC50 was determined as 20 µM in the experiment on HT 29 (Table 1b), 8 µM in the experiment on SW 480 (Table 1b) and 2 µM with B 16 F 10.

Regarding `CO[C@H]1[C@@H](O)[C@@H](CO)O[C@@H](Oc2ccc(NC(=S)NCCCC[C@@H](NC(=S)Nc3ccc(O[C@@H]4O[C@H](CO)[C@H](O)[C@H](OC)[C@H]4O)cc3)C(=O)NC3C=CCC4CN(c5c(F)cc6c(=O)c(C(=O)O)cn(C7CC7)c6c5Cl)CC43)cc2)[C@@H]1O` (stereo partly drawn) [Example 11.16, N-{N^α,N^ε -Bis-[O-(3-O-methyl-β-D-galactopyranosyl)-4-hydroxy-phenylamino-thiocarbonyl]-D-lysyl}-quinolone, sodium salt], the IC50 in the experiment with HT 29 (Table 1b) is 10 µM; with SW 480 (Table 1b), 10 µM; with B 16 F 10, 1.5 µM.

Consider `CO[C@@H]1[C@H](O)[C@@H](Oc2ccc(NC(=S)NCCCC[C@@H](NC(=S)Nc3ccc(O[C@H]4O[C@H](CO)[C@@H](O)[C@H](OC)[C@@H]4O)cc3)C(=O)NC3C=CCC4CN(c5c(F)cc6c(=O)c(C(=O)O)cn(C7CC7)c6c5Cl)CC43)cc2)O[C@H](CO)[C@H]1O` (stereo partly drawn) [Example 11.17, N-{N^α,N^ε -Bis-[O-(3-O-methyl-α-D-mannopyranosyl)-4-hydroxy-phenylamino-thiocarbonyl]-D-lysyl}-quinolone-a, sodium salt], for which the IC50 with HT 29 (Table 1b) worked out at 75 µM; in the experiment with SW 480 (Table 1b), 75 µM; in the experiment on B 16 F 10, 8 µM.

For the molecule `CO[C@H]1[C@H](O)[C@@H](Oc2ccc(NC(=S)N[C@@H](C)C(=O)NC3C=CCC4CN(c5c(F)cc6c(=O)c(C(=O)O)cn(C7CC7)c6c5Cl)CC43)cc2)O[C@@H](C)[C@H]1O` (stereo partly drawn) [Example 12.2], the values for the IC50 with SW 480 (Table 1b) and in the experiment on B 16 F 10 were 4 µM and 0.8 µM, respectively.

Consider “N-{N^α,N^ε -Bis-[O-(3-O-carboxymethyl-β-D-galactopyranosyl)-4-hydroxy-phenylamin o-thiocarbonyl]-lysyl-glycyl}-batracyline, di-sodium salt [Example 6.59]”, for which the IC50 in the experiment with HT 29 (setting [1]) and with SW 480 (setting [1]) was 50 µM throughout.

Turning to “N-{N^α,N^ε -Bis-[O-(3-O-carboxymethyl-β-L-fucosyl)-4-hydroxy-phenylamino-thiocar bonyl]-lysyl}-batracyline [Example 6.25]”, the IC50 turned out to be 40 µM in the experiment on HT 29 (setting [1]) and 50 µM with SW 480 (setting [1]).

For “N-{N^α,N^ε -Bis-[O-(3-O-methoxycarbonylmethyl-β-D-galactopyranosyl)-4-hydroxy-ph enylamino-thiocarbonyl]-lysyl-D-alanyl}-batracyline [Example 6.80]”, the IC50 in the experiment with HT 29 (setting [1]) stood at 25 µM; in the experiment with SW 480 (setting [1]) it was 40 µM.

With “N-{N^α,N^ε -Bis-[O-(3-O-methyl-α-D-mannopyranosyl)-4-hydroxy-phenylamino-thioca rbonyl]-lysyl-seryl}-batracyline [Example 6.36]”, the IC50 in the experiment with HT 29 (setting [1]) and in the experiment on SW 480 (setting [1]) was 70 µM throughout.

With “N-{N^α,N^ε -Bis-[O-(3-O-methyl-β-D-galactopyranosyl)-4-hydroxy-phenylamino-thioc arbonyl]-lysyl-seryl}-batracyline [Example 6.30]”, the IC50 turned out to be 70 µM with HT 29 (setting [1]) and 60 µM with SW 480 (setting [1]).

Regarding “N-{N^α,N^ε -Bis-[O-(3-O-methyl-β-L-fucosyl)-4-hydroxy-phenylamino-thiocarbonyl]- lysyl-D-seryl}-batracyline [Example 6.23]”, the results for the IC50 with HT 29 (setting [1]) and in the experiment with SW 480 (setting [1]) were 45 µM and 107 µM, respectively.

“N-{N^α,N^ε -Bis-[O-(3-O-n-propyl-β-L-fucosyl)-4-hydroxy-phenylamino-thiocarbonyl ]lysyl-D-alanyl}-batracyline [Example 6.7]”: the concentration for half-maximal inhibition (IC50) was above 250 µM in the experiment on HT 29 (setting [1]) and 60 µM with SW 480 (setting [1]).

On to “N-{N^α,N^ε -Bis-[O-(α-L-rhamnosyl)-4-hydroxy-phenylamino-thiocarbonyl]-lysyl-D- alanyl}-batracyline [Example 6.15]”, for which the IC50 in the experiment with HT 29 (setting [1]) and with SW 480 (setting [1]) was above 250 µM throughout.

Turning to “N-{N^ε -O-(2-O-Methyl-β-L-fucosyl)-4-hydroxy-phenylamino-thiocarbonyl]-lysyl -D-alanyl}-batracyline [Example 3.2]”, the IC50 with HT 29 (setting [1]) worked out at 75 µM; with SW 480 (setting [1]), 100 µM.

“N-{N^ε -[O-(3-O-Carbamoylmethyl-β-L-fucosyl)-4-hydroxy-phenylamino-thiocarbo nyl]-lysyl-D-alanyl}-batracyline, sodium salt [Example 3.10]”: the IC50 amounted to 125 µM in the experiment with HT 29 (setting [1]) and 100 µM in the experiment with SW 480 (setting [1]).

For the molecule “N-{Nα-[O-(β-L-Fucosyl)-4-hydroxy-phenylamino-thiocarbonyl]-lysy l-D-alanyl}-batracyline [Example 4.1]”, the IC50 in the experiment on HT 29 (setting [1]) came out at 30 µM; with SW 480 (setting [1]) it was 25 µM.

One may read the IC50 as the concentration at which inhibition is half-maximal. The low end stands for greater potency, the high end for weaker potency.
